The record followed here is patent US12122764B2, “IKAROS zinc finger family degraders and uses thereof” (Gilead Sciences, Inc., priority 2021, dated 2024).

For one assay, the target named is T1, IKZF2 (Homo sapiens, UniProt Q96SW2+Q9UKS7).
T1 construct: expressed in transfected cells
T1 sequence (Q9UKS7 1-500 isoform Q9UKS7-2): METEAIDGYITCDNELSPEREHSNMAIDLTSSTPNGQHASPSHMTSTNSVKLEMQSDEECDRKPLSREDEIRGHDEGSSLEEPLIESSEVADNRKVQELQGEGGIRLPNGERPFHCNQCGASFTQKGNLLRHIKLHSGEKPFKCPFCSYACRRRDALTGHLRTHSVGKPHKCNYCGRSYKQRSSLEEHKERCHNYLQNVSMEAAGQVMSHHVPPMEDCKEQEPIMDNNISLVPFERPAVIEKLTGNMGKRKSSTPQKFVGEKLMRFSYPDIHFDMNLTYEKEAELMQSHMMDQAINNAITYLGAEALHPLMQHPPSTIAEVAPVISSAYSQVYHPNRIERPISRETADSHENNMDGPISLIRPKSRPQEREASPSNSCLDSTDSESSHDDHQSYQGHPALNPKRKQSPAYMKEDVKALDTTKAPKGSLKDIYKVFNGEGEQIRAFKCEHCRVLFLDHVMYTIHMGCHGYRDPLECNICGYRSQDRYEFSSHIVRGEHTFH
T1 sequence (Q96SW2 whole entry): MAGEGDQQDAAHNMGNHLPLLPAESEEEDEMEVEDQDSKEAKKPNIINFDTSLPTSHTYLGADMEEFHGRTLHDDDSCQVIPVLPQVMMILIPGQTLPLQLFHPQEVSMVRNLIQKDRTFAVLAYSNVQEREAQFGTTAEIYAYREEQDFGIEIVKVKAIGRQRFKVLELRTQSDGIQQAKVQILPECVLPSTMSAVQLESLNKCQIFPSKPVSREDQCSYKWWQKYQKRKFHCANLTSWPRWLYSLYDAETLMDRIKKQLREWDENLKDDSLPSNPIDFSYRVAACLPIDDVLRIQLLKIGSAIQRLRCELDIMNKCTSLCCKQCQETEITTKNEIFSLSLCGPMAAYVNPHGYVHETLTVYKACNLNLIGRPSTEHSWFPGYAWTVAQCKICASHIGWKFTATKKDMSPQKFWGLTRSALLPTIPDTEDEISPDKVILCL
T1 sequence (Q16531 whole entry partner): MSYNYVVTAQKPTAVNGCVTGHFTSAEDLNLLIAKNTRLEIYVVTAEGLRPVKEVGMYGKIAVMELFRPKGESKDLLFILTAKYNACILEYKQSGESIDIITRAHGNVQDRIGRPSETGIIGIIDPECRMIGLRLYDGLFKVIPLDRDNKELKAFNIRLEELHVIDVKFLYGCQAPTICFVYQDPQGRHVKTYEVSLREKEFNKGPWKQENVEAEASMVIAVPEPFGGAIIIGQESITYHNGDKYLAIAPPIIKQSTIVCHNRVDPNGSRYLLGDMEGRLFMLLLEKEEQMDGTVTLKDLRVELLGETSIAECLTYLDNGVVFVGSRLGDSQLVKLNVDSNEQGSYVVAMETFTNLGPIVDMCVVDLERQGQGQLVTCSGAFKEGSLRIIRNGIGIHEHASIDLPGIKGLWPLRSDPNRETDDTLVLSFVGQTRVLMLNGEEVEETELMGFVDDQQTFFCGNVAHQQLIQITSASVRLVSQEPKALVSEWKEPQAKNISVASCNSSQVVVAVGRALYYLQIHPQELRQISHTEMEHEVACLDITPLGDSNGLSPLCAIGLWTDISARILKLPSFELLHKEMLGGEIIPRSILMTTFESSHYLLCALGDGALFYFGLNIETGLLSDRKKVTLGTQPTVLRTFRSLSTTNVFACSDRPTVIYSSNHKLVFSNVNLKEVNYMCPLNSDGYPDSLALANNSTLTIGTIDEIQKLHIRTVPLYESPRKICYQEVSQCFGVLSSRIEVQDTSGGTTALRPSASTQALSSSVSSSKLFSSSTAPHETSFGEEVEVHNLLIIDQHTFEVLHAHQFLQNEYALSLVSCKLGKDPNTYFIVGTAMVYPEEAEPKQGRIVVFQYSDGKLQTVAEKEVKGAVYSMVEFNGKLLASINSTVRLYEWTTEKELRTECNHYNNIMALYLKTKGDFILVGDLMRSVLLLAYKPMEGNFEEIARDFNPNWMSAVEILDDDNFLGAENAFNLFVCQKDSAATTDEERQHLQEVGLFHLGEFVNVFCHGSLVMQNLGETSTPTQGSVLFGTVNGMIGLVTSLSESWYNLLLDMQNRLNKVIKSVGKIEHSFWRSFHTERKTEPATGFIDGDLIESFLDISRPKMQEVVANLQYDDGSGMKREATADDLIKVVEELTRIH
Nature of the assay: HiBiT protein tagging assay, in vitro IKZF2 degradation (HEK293). It counts as cell-based. The conditions noted are these: IKZF2-HiBiT reporter Flp-In T-REx HEK293 cells, doxycycline-induced, compound overnight (18-24 hr), normalized to DMSO control. On the procedure:
In vitro degradation of IKZF1 and IKZF2 was measured using HiBiT protein tagging and detection technology (Promega).
HiBiT technology (Promega) was used to develop the quantitative assays to measure the cellular IKZFs level by tagging an 11 amino acid HiBit peptides VSGWRLFKKIS (SEQ ID NO:1) to the protein of interest. Reporter plasmids were generated by fusing a linker sequence (GSSGGSSG; SEQ ID NO:2) followed by the HiBiT tag at the C terminus of IKZF1 and IKZF2. The fusion fragments were subsequently cloned into pcDNA5 pcDNA™5/FRT/TO plasmids (Thermo Fisher, cat #V652020) downstream of the Tetracycline operator. The resulting plasmids were co-transfected with pOG44 Flp-Recombinase Expression Vector (Thermo Fisher, cat #V600520) into Flp-In™ T-REx HEK293 line (Thermo Fisher, cat #R78077) and a stable cell pool was selected by adding 100 μg/ml of Hygromycin (Thermo Fisher, cat #10687010). The reporter cell enabled Tet-On inducible reporter expression from a single copy of the integrated gene.
On Day 1, Cells were grown to ˜80% confluency in TC medium (DMEM Glutamax (Gibco10569), 10% Tet free FBS (Takara 631106), and PenStrep Glutamin (Gibco 10378)) in tissue culture flasks. Doxycycline was then added to a final concentration of 1 μg/ml to induce reporter expression at 37° C. overnight.
On Day 2, 125 nL of serially-diluted solution of testing compounds were dispensed into 384-well white solid assay plates via ECHO acoustic liquid handler. Cells were lifted by 0.25% Trypsin (Gibco 25200) then pelleted by centrifugation (Beckman Avanti J-E) at 500×g for 5 min. Cell pellets were resuspended in TC medium at the concentration of 3e5/mL and 25 μL of cell suspension were added into each well of compound-spotted plates. The plates were returned to a 37° C. incubator overnight (18-24 hr).
On Day 3, assay plates were removed from the TC incubator and 25 μL of Nano-Glo lytic detection system (Promega, cat #N3030) was added to each well. Plates were incubated at r.t. for 3 min with shaking, and luminescence was read using an Envision reader (Perkin Elmer).
All raw data was normalized to DMSO control (final concentration: 0.5%) wells as POC and plotted out for EC50 and Dmax (Maximum degradation at the highest concentration tested in the assay).
On the technique in general: HiBiT is a short tag that completes a luciferase, so light tracks the accessible tagged protein.
With `O=C1CCC(N2Cc3cc(O[C@@H]4CN(Cc5ccccc5)CC[C@H]4N4CC(Oc5ccccc5Cl)C4)ccc3C2=O)C(=O)N1` (relative stereo) [Example 54, 3-(5-(((3,4-trans)-1-benzyl-4-(3-(2-chlorophenoxy)azetidin-1-yl)piperidin-3-yl)oxy)-1-oxoisoindolin-2-yl)piperidine-2,6-dione], the “IKZF2 Dmax (maximum degradation at the highest concentration tested)” value came out at 94%.

Still in this assay, the particulars now being: IKZF2-HiBiT reporter Flp-In T-REx HEK293 cells, doxycycline-induced, compound overnight (18-24 hr), normalized to DMSO control; read-out: IKZF2 Dmax (maximum degradation at the highest concentration tested).
For the compound `CCN(CC)[C@H]1CCN(Cc2ccc(F)cc2)C[C@@H]1Oc1ccc2c(c1)CN(C1CCC(=O)NC1=O)C2=O` (stereo partly shown) [Example 65], the Dmax is 99%. Still for that read-out and setting: for `O=C1CCC(N2Cc3cc(O[C@H]4CN(Cc5ccccc5)CC[C@@H]4NCc4ccccc4Cl)ccc3C2=O)C(=O)N1` (mixture of isomers) [Example 10] the value was 69%; for `O=C1CCC(N2Cc3cc(OC4CN(Cc5ccccc5)CCC4N(C4CC4)C4CC4)ccc3C2=O)C(=O)N1` (racemic) [Example 61], 82%; for `O=C1CCC(N2Cc3cc(OC4CN(Cc5ccccc5)CCC4NC4CC4)ccc3C2=O)C(=O)N1` (racemic) [Example 63], 94%.

Turning to `O=C1CCC(N2Cc3cc(O[C@H]4CN(c5ccccc5)C[C@@H]4NCc4ccccc4)ccc3C2=O)C(=O)N1` (stereo partly drawn) [Example 39, 3-(5-(((3S,4S)-4-(benzylamino)-1-phenylpyrrolidin-3-yl)oxy)-1-oxoisoindolin-2-yl)piperidine-2,6-dione], the Dmax turned out to be 39%.

With `O=C1CCC(N2Cc3cc(OC4CN(Cc5ccncc5)CCC4NCc4ccccc4)ccc3C2=O)C(=O)N1` (racemic) [Example 9], the Dmax amounted to 87%. Same read-out and setting: for `O=C1CCC(N2Cc3cc(O[C@H]4CN(Cc5ccc(Cl)cc5)CC[C@@H]4NCc4ccccc4)ccc3C2=O)C(=O)N1` (mixture of isomers) [Example 30] the value was 95%; for `O=C1CCC(N2Cc3cc(O[C@H]4CN(Cc5ccc(F)cc5F)CC[C@@H]4NCc4ccccc4)ccc3C2=O)C(=O)N1` (mixture of isomers) [Example 21], 92%. On to `O=C1CCC(N2Cc3cc(O[C@H]4CN(Cc5ccccc5F)CC[C@@H]4NCc4ccccc4)ccc3C2=O)C(=O)N1` (mixture of isomers) [Example 17], for which the Dmax was found to be 91%.

Regarding `C[C@@H](c1ccccc1)N1CC[C@H](NCc2ccccc2)[C@@H](Oc2ccc3c(c2)CN(C2CCC(=O)NC2=O)C3=O)C1` (mixture of isomers) [Example 50], the Dmax was found to be 71%. `CC(C)N[C@H]1CCN(Cc2nccs2)C[C@@H]1Oc1ccc2c(c1)CN(C1CCC(=O)NC1=O)C2=O` (stereo partly shown) [Example 62]: the Dmax amounted to 103%. Still for that read-out and setting: with `CCNC1CCN(Cc2ccc(F)cc2)CC1Oc1ccc2c(c1)CN(C1CCC(=O)NC1=O)C2=O` (racemic) [Example 27] the figure was 92%; with `CCNC1CCN(Cc2ccc3ccccc3c2)CC1Oc1ccc2c(c1)CN(C1CCC(=O)NC1=O)C2=O` (racemic) [Example 56], 96%; with `CCNC1CCN(Cc2cccc(-c3ccccc3)c2)CC1Oc1ccc2c(c1)CN(C1CCC(=O)NC1=O)C2=O` (racemic) [Example 60], 83%. On the same count and under the same terms, with `CC(C)NC1CCN(Cc2ccccc2)CC1Oc1ccc2c(c1)CN(C1CCC(=O)NC1=O)C2=O` (racemic) [Example 36] the figure was 98%; with `O=C1CCC(N2Cc3cc(O[C@@H]4CN(C5CC5)CC[C@H]4NCc4ccccc4)ccc3C2=O)C(=O)N1` (mixture of isomers) [Example 16], 57%; with `CN1CC[C@@H](NCc2ccccc2)[C@H](Oc2ccc3c(c2)CN(C2CCC(=O)NC2=O)C3=O)C1` (relative stereo) [Example 1, 3-(5-((trans-4-(benzylamino)-1-methylpiperidin-3-yl)oxy)-1-oxoisoindolin-2-yl)piperidine-2,6-dione], 53%.

In the case of `CC(C)N[C@H]1CCN(Cc2cnccn2)C[C@@H]1Oc1ccc2c(c1)CN(C1CCC(=O)NC1=O)C2=O` (stereo partly shown) [Example 68], the Dmax is 74%. Still for that read-out and setting: with `O=C1CCC(N2Cc3cc(O[C@H]4CN(Cc5cc(F)ccc5F)CC[C@@H]4NCc4ccccc4)ccc3C2=O)C(=O)N1` (mixture of isomers) [Example 23] the figure was 88%. On to `O=C1CCC(N2Cc3cc(O[C@H]4CN(Cc5ccccc5)CC[C@@H]4NCc4cccc(F)c4)ccc3C2=O)C(=O)N1` (mixture of isomers) [Example 29], for which the Dmax came out at 88%.

Turning to `C[C@H](c1ccccc1)N1CC[C@H](NCc2ccccc2)[C@@H](Oc2ccc3c(c2)CN(C2CCC(=O)NC2=O)C3=O)C1` (mixture of isomers) [Example 51], the Dmax is 57%. Take `CCN[C@H]1CCN(Cc2ccc(F)cc2)C[C@@H]1Oc1ccc2c(c1)CN(C1CCC(=O)NC1=O)C2=O` (stereo partly shown) [Example 64]: the Dmax is 98%. The same measure, in the same setting: with `O=C1CCC(N2Cc3cc(OC4CN(CC(F)F)CCC4NCc4ccccc4)ccc3C2=O)C(=O)N1` (stereo not drawn) [Example 49, 3-(5-(((3,4-trans)-4-(benzylamino)-1-(2,2-difluoroethyl)piperidin-3-yl)oxy)-1-oxoisoindolin-2-yl)piperidine-2,6-dione] the figure was 69%. On the same count and under the same terms, for `CC(C)N[C@H]1CCN(Cc2ccn(C)n2)C[C@@H]1Oc1ccc2c(c1)CN(C1CCC(=O)NC1=O)C2=O` (stereo partly shown) [Example 66] the value was 34%. On the same count and under the same terms, with `O=C1CCC(N2Cc3cc(OC4CN(Cc5ccccc5)CCC4NC(=O)c4ccccc4)ccc3C2=O)C(=O)N1` (stereo not drawn) [Example 44, N-((3,4-trans)-1-benzyl-3-((2-(2,6-dioxopiperidin-3-yl)-1-oxoisoindolin-5-yl)oxy)piperidin-4-yl)benzamide] the figure was 79%. Consider `N#CCN1CCC(NCc2ccccc2)C(Oc2ccc3c(c2)CN(C2CCC(=O)NC2=O)C3=O)C1` (racemic) [Example 41], for which the Dmax is 28%. On the same count and under the same terms, for `O=C1CCC(N2Cc3cc(O[C@H]4CN(Cc5ccccc5)CC[C@@H]4NCc4ccc(F)cc4)ccc3C2=O)C(=O)N1` (mixture of isomers) [Example 26] the value was 89%.
